{"source": "paper PMC2921631", "about": "(Analytical biochemistry, 2010)", "assay_type_in_all_cases": "biochemical", "key": {"[1]": {"target": "LRRK2 (full-length, from BAC-transgenic mouse brain) (Mus musculus, UniProt Q5S006)", "sequence (Q5S006 whole entry)": "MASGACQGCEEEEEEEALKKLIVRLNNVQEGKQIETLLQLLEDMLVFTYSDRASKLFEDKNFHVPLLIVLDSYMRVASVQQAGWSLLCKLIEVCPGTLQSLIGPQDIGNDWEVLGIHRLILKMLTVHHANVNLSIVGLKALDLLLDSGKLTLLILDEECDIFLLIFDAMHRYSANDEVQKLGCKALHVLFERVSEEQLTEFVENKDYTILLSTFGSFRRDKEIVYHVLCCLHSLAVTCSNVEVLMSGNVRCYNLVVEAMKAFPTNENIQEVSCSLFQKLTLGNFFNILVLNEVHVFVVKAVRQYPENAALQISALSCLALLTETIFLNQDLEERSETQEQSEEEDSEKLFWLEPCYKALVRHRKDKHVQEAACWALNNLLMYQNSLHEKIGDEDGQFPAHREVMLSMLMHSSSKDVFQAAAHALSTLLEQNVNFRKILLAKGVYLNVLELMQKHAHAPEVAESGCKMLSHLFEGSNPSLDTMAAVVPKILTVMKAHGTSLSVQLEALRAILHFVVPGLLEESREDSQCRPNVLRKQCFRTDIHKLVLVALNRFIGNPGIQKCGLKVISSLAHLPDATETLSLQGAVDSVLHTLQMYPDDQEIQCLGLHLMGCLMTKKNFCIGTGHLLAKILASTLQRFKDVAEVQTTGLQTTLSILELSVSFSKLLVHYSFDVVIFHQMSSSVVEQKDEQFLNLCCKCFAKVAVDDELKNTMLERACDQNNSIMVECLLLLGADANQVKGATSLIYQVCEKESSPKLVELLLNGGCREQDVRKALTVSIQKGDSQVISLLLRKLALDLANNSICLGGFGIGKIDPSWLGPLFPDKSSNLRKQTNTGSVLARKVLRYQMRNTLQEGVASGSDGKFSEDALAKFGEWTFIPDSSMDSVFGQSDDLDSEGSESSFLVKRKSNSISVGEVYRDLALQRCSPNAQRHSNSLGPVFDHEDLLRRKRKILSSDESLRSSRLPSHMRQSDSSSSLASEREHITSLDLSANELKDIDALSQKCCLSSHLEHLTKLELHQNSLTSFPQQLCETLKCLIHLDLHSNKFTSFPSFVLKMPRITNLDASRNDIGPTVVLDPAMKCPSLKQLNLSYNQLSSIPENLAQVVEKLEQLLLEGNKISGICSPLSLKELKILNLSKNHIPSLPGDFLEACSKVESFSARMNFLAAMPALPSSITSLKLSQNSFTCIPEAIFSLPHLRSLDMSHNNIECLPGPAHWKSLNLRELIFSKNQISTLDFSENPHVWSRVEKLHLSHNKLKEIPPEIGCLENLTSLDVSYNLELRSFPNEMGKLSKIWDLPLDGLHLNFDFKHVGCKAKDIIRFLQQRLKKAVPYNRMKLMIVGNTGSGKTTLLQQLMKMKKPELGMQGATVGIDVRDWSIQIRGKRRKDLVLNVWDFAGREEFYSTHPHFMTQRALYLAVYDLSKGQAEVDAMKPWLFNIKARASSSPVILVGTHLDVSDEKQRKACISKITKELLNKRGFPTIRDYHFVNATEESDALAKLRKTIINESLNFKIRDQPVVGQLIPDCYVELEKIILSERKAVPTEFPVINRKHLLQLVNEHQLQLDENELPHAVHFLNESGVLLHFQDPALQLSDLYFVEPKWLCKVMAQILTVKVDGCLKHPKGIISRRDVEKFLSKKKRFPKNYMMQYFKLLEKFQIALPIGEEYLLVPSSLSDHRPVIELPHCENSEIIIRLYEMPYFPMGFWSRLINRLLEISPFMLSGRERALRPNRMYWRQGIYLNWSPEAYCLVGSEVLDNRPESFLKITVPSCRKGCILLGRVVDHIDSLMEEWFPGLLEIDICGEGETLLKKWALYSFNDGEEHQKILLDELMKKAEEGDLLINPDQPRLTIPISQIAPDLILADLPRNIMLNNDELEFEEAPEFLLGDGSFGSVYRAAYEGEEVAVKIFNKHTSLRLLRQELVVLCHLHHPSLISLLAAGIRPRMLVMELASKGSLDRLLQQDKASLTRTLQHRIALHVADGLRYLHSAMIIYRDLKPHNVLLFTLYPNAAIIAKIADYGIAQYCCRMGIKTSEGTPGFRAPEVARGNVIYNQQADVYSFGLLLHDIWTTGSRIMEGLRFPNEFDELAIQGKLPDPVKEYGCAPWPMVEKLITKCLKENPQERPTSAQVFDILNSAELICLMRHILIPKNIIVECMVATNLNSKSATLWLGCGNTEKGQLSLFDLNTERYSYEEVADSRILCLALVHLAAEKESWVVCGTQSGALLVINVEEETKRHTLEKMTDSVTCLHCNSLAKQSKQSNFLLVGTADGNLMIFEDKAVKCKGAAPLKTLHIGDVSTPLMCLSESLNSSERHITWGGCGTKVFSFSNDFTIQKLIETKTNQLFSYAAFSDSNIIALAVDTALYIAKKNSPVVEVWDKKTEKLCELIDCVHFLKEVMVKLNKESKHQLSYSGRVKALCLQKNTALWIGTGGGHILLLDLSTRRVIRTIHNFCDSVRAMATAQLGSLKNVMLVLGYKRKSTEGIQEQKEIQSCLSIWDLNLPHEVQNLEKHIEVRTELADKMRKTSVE", "assay": "TR-FRET kinase assay with PLK-peptide"}, "[2]": {"target": "LRRK2 (human, G2019S mutant) (Homo sapiens, UniProt Q5S007, G2019S)", "sequence (Q5S007 970-2527 G2019S)": "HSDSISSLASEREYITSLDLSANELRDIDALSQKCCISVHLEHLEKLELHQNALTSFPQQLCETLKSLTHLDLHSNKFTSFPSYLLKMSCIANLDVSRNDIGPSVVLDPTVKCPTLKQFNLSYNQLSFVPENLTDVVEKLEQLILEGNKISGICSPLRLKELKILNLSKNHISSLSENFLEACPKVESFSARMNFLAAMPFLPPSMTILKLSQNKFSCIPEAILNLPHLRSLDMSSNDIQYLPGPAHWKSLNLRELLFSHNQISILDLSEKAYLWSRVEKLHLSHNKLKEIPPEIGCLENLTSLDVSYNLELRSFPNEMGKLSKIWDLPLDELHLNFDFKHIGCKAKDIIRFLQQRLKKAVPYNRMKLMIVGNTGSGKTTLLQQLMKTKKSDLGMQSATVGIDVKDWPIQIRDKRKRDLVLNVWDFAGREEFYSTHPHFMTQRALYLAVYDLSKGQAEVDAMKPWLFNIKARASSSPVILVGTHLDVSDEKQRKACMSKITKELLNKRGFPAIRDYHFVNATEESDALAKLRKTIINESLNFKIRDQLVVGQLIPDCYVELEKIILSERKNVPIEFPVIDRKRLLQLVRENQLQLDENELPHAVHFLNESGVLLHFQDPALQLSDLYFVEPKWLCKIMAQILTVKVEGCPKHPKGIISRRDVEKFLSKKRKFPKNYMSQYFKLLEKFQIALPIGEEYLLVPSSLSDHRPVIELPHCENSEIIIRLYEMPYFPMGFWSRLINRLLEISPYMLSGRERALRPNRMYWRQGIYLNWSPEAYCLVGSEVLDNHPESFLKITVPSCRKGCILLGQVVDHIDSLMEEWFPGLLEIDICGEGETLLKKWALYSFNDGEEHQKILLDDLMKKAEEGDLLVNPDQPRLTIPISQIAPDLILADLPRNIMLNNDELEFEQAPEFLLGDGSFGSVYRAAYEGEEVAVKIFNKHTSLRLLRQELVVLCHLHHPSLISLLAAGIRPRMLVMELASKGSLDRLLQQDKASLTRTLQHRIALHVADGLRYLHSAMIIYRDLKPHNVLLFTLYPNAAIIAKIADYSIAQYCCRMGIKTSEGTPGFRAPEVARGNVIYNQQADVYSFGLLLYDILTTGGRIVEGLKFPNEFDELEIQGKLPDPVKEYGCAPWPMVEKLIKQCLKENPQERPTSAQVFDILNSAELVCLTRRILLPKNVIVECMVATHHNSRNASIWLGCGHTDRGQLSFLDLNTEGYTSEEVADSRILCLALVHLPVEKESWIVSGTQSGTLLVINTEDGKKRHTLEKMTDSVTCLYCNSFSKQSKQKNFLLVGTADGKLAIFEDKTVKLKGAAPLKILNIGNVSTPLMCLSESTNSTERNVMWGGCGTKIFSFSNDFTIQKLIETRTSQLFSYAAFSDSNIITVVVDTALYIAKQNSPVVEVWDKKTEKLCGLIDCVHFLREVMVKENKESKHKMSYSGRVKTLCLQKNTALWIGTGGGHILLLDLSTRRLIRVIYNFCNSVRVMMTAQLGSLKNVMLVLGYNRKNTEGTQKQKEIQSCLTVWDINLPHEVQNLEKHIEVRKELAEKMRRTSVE", "assay": "TR-FRET kinase assay with PLK-peptide, […] h preincubation"}, "LRRK2 (human, wild-type)": {"target": "LRRK2 (human, wild-type) (Homo sapiens, UniProt Q5S007)", "sequence (Q5S007 970-2527)": "as the sequence (Q5S007 970-2527 G2019S) above, with S1050G counted along it", "assay": "TR-FRET kinase assay with PLK-peptide, […] h preincubation"}}, "data": [{"substance": "LDN-22684", "values": [{"measurement": "IC50", "setting": "[1]", "value": "5.4 ± 0.8", "unit": "µM"}, {"measurement": "IC50", "setting": "[2]", "value": "6.9 ± 1", "unit": "µM"}, {"measurement": "IC50", "setting": "LRRK2 (human, wild-type)", "value": "6.1 ± 0.8", "unit": "µM"}]}]}
